Organism: Rattus norvegicus
Experiment: Open TG-GATES - Regimen: Single
Type: toxicity, organism-based, Sprague-Dawley
Set-up: regimen Single, gender Male, age 6 weeks
Conditions: in vivo, po, route gavage; for APTT / Bas / Eos / Fbg / Hb / Ht / Lym / MCH / MCHC / MCV / Mono / Neu / PT / Plat / RBC / Ret / WBC: tissue Blood; for KIDNEY_L / KIDNEY_R / KIDNEY_TOTAL: tissue Kidney; for LIVER: tissue Liver; for A/G / ALP / ALT / AST / BUN / CRE / Ca / Cl / DBIL / GLC / IP / K / LDH / Na / PL / RALB / TBIL / TC / TG / TP / gamma-GTP: tissue Plasma
[1] = 200 mg/kg, 3 h, dose level Middle
[2] = 200 mg/kg, 6 h, dose level Middle
[3] = 200 mg/kg, 9 h, dose level Middle
[4] = 200 mg/kg, 24 h, dose level Middle
[5] = 600 mg/kg, 3 h, dose level High
[6] = 600 mg/kg, 6 h, dose level High
[7] = 600 mg/kg, 9 h, dose level High
[8] = 600 mg/kg, 24 h, dose level High

C[C@](N)(Cc1ccc(O)c(O)c1)C(=O)O [METHYLDOPA]
TERMINAL_BW [1]: 187.9 g
APTT [1]: 15.7 s
Bas [1]: 0.2%
Eos [1]: 0.8%
Fbg [1]: 274 mg/dL
Hb [1]: 13.1 g/dL
Ht [1]: 39.2%
Lym [1]: 79%
MCH [1]: 21.5 pg
MCHC [1]: 33.4%
MCV [1]: 64.6 fL
Mono [1]: 3.4%
Neu [1]: 15.8%
PT [1]: 12.4 s
Plat [1]: 105.6 x10_4/uL
RBC [1]: 607 x10_4/ul
Ret [1]: 10.7%
WBC [1]: 91.2 x10_2/uL
KIDNEY_L [1]: 0.9 g
KIDNEY_R [1]: 0.8 g
KIDNEY_TOTAL [1]: 1.7 g
LIVER [1]: 7.8 g
A/G [1]: 0.9
ALP [1]: 1861.2 IU/L
ALT [1]: 55 IU/L
AST [1]: 80.2 IU/L
BUN [1]: 9 mg/dL
CRE [1]: 0.1 mg/dL
Ca [1]: 11.4 mg/dL
Cl [1]: 107.2 meq/L
DBIL [1]: 0.008 mg/dL
GLC [1]: 205.8 mg/dL
IP [1]: 9.8 mg/dL
K [1]: 4.6 meq/L
LDH [1]: 64.4 IU/L
Na [1]: 142.2 meq/L
PL [1]: 129.2 mg/dL
RALB [1]: 2.6 g/dL
TBIL [1]: 0.058 mg/dL
TC [1]: 78.6 mg/dL
TG [1]: 45 mg/dL
TP [1]: 5.4 g/dL
gamma-GTP [1]: 1.2 IU/L
TERMINAL_BW [2]: 189 g
APTT [2]: 16.4 s
Bas [2]: 0%
Eos [2]: 0.6%
Fbg [2]: 267.4 mg/dL
Hb [2]: 13.5 g/dL
Ht [2]: 41.1%
Lym [2]: 73.8%
MCH [2]: 21.1 pg
MCHC [2]: 32.8%
MCV [2]: 64.3 fL
Mono [2]: 3%
Neu [2]: 22.2%
PT [2]: 12.2 s
Plat [2]: 120.2 x10_4/uL
RBC [2]: 640.2 x10_4/ul
Ret [2]: 11.7%
WBC [2]: 56.8 x10_2/uL
KIDNEY_L [2]: 0.8 g
KIDNEY_R [2]: 0.8 g
KIDNEY_TOTAL [2]: 1.6 g
LIVER [2]: 7.9 g
A/G [2]: 0.9
ALP [2]: 1438.2 IU/L
ALT [2]: 48.2 IU/L
AST [2]: 71.6 IU/L
BUN [2]: 6.6 mg/dL
CRE [2]: 0.1 mg/dL
Ca [2]: 11.8 mg/dL
Cl [2]: 107 meq/L
DBIL [2]: 0.006 mg/dL
GLC [2]: 219.4 mg/dL
IP [2]: 13 mg/dL
K [2]: 5.3 meq/L
LDH [2]: 58.8 IU/L
Na [2]: 144.6 meq/L
PL [2]: 130.2 mg/dL
RALB [2]: 2.5 g/dL
TBIL [2]: 0.054 mg/dL
TC [2]: 85.8 mg/dL
TG [2]: 45.8 mg/dL
TP [2]: 5.3 g/dL
gamma-GTP [2]: 1 IU/L
TERMINAL_BW [3]: 186.6 g
APTT [3]: 16.1 s
Bas [3]: 0%
Eos [3]: 1.2%
Fbg [3]: 268.6 mg/dL
Hb [3]: 13.1 g/dL
Ht [3]: 38.8%
Lym [3]: 77.6%
MCH [3]: 22.3 pg
MCHC [3]: 33.8%
MCV [3]: 66 fL
Mono [3]: 2.8%
Neu [3]: 17.6%
PT [3]: 12.2 s
Plat [3]: 121.1 x10_4/uL
RBC [3]: 588.8 x10_4/ul
Ret [3]: 10.8%
WBC [3]: 53.5 x10_2/uL
KIDNEY_L [3]: 0.8 g
KIDNEY_R [3]: 0.8 g
KIDNEY_TOTAL [3]: 1.6 g
LIVER [3]: 7.2 g
A/G [3]: 0.9
ALP [3]: 1466.4 IU/L
ALT [3]: 43.4 IU/L
AST [3]: 71.8 IU/L
BUN [3]: 7 mg/dL
CRE [3]: 0.1 mg/dL
Ca [3]: 11 mg/dL
Cl [3]: 107 meq/L
DBIL [3]: 0.008 mg/dL
GLC [3]: 203.2 mg/dL
IP [3]: 11.2 mg/dL
K [3]: 4.9 meq/L
LDH [3]: 57.4 IU/L
Na [3]: 143.6 meq/L
PL [3]: 131.6 mg/dL
RALB [3]: 2.5 g/dL
TBIL [3]: 0.07 mg/dL
TC [3]: 83.6 mg/dL
TG [3]: 49.6 mg/dL
TP [3]: 5.3 g/dL
gamma-GTP [3]: 1 IU/L
TERMINAL_BW [4]: 192.7 g
APTT [4]: 16 s
Bas [4]: 0%
Eos [4]: 1%
Fbg [4]: 251.2 mg/dL
Hb [4]: 13.2 g/dL
Ht [4]: 39.1%
Lym [4]: 75.4%
MCH [4]: 22.1 pg
MCHC [4]: 33.9%
MCV [4]: 65.1 fL
Mono [4]: 2.8%
Neu [4]: 20.4%
PT [4]: 12.6 s
Plat [4]: 115.8 x10_4/uL
RBC [4]: 600.4 x10_4/ul
Ret [4]: 9.3%
WBC [4]: 76.2 x10_2/uL
KIDNEY_L [4]: 0.9 g
KIDNEY_R [4]: 0.8 g
KIDNEY_TOTAL [4]: 1.7 g
LIVER [4]: 8.9 g
A/G [4]: 0.9
ALP [4]: 1671.8 IU/L
ALT [4]: 58.2 IU/L
AST [4]: 80.8 IU/L
BUN [4]: 15.8 mg/dL
CRE [4]: 0.2 mg/dL
Ca [4]: 11.4 mg/dL
Cl [4]: 107.6 meq/L
DBIL [4]: 0.014 mg/dL
GLC [4]: 191 mg/dL
IP [4]: 8.6 mg/dL
K [4]: 4.6 meq/L
LDH [4]: 73.6 IU/L
Na [4]: 144.4 meq/L
PL [4]: 136.4 mg/dL
RALB [4]: 2.6 g/dL
TBIL [4]: 0.064 mg/dL
TC [4]: 80 mg/dL
TG [4]: 68.6 mg/dL
TP [4]: 5.5 g/dL
gamma-GTP [4]: 1 IU/L
TERMINAL_BW [5]: 186.5 g
APTT [5]: 15.6 s
Bas [5]: 0%
Eos [5]: 0.8%
Fbg [5]: 261.6 mg/dL
Hb [5]: 13.2 g/dL
Ht [5]: 39.8%
Lym [5]: 74.6%
MCH [5]: 22 pg
MCHC [5]: 33.1%
MCV [5]: 66.7 fL
Mono [5]: 3.4%
Neu [5]: 20.8%
PT [5]: 12.2 s
Plat [5]: 112.5 x10_4/uL
RBC [5]: 597.2 x10_4/ul
Ret [5]: 10.6%
WBC [5]: 68.3 x10_2/uL
KIDNEY_L [5]: 0.8 g
KIDNEY_R [5]: 0.8 g
KIDNEY_TOTAL [5]: 1.6 g
LIVER [5]: 7.8 g
A/G [5]: 0.9
ALP [5]: 1837.6 IU/L
ALT [5]: 55.2 IU/L
AST [5]: 84.4 IU/L
BUN [5]: 9.4 mg/dL
CRE [5]: 0.1 mg/dL
Ca [5]: 11.3 mg/dL
Cl [5]: 108.2 meq/L
DBIL [5]: 0.018 mg/dL
GLC [5]: 204.4 mg/dL
IP [5]: 9.8 mg/dL
K [5]: 4.6 meq/L
LDH [5]: 59.6 IU/L
Na [5]: 143.4 meq/L
PL [5]: 133.6 mg/dL
RALB [5]: 2.5 g/dL
TBIL [5]: 0.054 mg/dL
TC [5]: 76.6 mg/dL
TG [5]: 70.8 mg/dL
TP [5]: 5.4 g/dL
gamma-GTP [5]: 1 IU/L
TERMINAL_BW [6]: 187.6 g
APTT [6]: 17.1 s
Bas [6]: 0%
Eos [6]: 0.8%
Fbg [6]: 272.2 mg/dL
Hb [6]: 13.7 g/dL
Ht [6]: 41.1%
Lym [6]: 81%
MCH [6]: 21.7 pg
MCHC [6]: 33.3%
MCV [6]: 65.2 fL
Mono [6]: 2.4%
Neu [6]: 15.4%
PT [6]: 12.3 s
Plat [6]: 136.7 x10_4/uL
RBC [6]: 631 x10_4/ul
Ret [6]: 9.9%
WBC [6]: 49.9 x10_2/uL
KIDNEY_L [6]: 0.8 g
KIDNEY_R [6]: 0.8 g
KIDNEY_TOTAL [6]: 1.7 g
LIVER [6]: 7.7 g
A/G [6]: 0.9
ALP [6]: 1883.6 IU/L
ALT [6]: 52 IU/L
AST [6]: 81 IU/L
BUN [6]: 6 mg/dL
CRE [6]: 0.1 mg/dL
Ca [6]: 11.7 mg/dL
Cl [6]: 105.2 meq/L
DBIL [6]: 0.006 mg/dL
GLC [6]: 225.8 mg/dL
IP [6]: 13.1 mg/dL
K [6]: 5.4 meq/L
LDH [6]: 71.8 IU/L
Na [6]: 144.8 meq/L
PL [6]: 122 mg/dL
RALB [6]: 2.6 g/dL
TBIL [6]: 0.054 mg/dL
TC [6]: 76.6 mg/dL
TG [6]: 38 mg/dL
TP [6]: 5.6 g/dL
gamma-GTP [6]: 1 IU/L
TERMINAL_BW [7]: 188.2 g
APTT [7]: 17.2 s
Bas [7]: 0%
Eos [7]: 0.4%
Fbg [7]: 262.8 mg/dL
Hb [7]: 13.5 g/dL
Ht [7]: 40.3%
Lym [7]: 79%
MCH [7]: 22.1 pg
MCHC [7]: 33.6%
MCV [7]: 65.8 fL
Mono [7]: 2.6%
Neu [7]: 17.4%
PT [7]: 12.5 s
Plat [7]: 122.5 x10_4/uL
RBC [7]: 614.4 x10_4/ul
Ret [7]: 9.7%
WBC [7]: 52.4 x10_2/uL
KIDNEY_L [7]: 0.8 g
KIDNEY_R [7]: 0.8 g
KIDNEY_TOTAL [7]: 1.6 g
LIVER [7]: 7.3 g
A/G [7]: 0.9
ALP [7]: 1418.8 IU/L
ALT [7]: 46.2 IU/L
AST [7]: 67.8 IU/L
BUN [7]: 6.2 mg/dL
CRE [7]: 0.1 mg/dL
Ca [7]: 11.4 mg/dL
Cl [7]: 105.6 meq/L
DBIL [7]: 0.008 mg/dL
GLC [7]: 220 mg/dL
IP [7]: 11.8 mg/dL
K [7]: 4.9 meq/L
LDH [7]: 62 IU/L
Na [7]: 144.2 meq/L
PL [7]: 120 mg/dL
RALB [7]: 2.5 g/dL
TBIL [7]: 0.056 mg/dL
TC [7]: 75.4 mg/dL
TG [7]: 30.8 mg/dL
TP [7]: 5.3 g/dL
gamma-GTP [7]: 1 IU/L
TERMINAL_BW [8]: 180.6 g
APTT [8]: 16.9 s
Bas [8]: 0%
Eos [8]: 1%
Fbg [8]: 251.2 mg/dL
Hb [8]: 13.4 g/dL
Ht [8]: 39.6%
Lym [8]: 76%
MCH [8]: 21.9 pg
MCHC [8]: 33.9%
MCV [8]: 64.5 fL
Mono [8]: 3%
Neu [8]: 20%
PT [8]: 12.5 s
Plat [8]: 133.6 x10_4/uL
RBC [8]: 613.2 x10_4/ul
Ret [8]: 9.5%
WBC [8]: 49.4 x10_2/uL
KIDNEY_L [8]: 0.9 g
KIDNEY_R [8]: 0.9 g
KIDNEY_TOTAL [8]: 1.8 g
LIVER [8]: 7.5 g
A/G [8]: 0.9
ALP [8]: 1827.4 IU/L
ALT [8]: 50 IU/L
AST [8]: 73.4 IU/L
BUN [8]: 20 mg/dL
CRE [8]: 0.2 mg/dL
Ca [8]: 11.4 mg/dL
Cl [8]: 108.2 meq/L
DBIL [8]: 0.02 mg/dL
GLC [8]: 202.2 mg/dL
IP [8]: 8.8 mg/dL
K [8]: 4.8 meq/L
LDH [8]: 63.4 IU/L
Na [8]: 146.2 meq/L
PL [8]: 139.4 mg/dL
RALB [8]: 2.7 g/dL
TBIL [8]: 0.074 mg/dL
TC [8]: 84 mg/dL
TG [8]: 60.6 mg/dL
TP [8]: 5.7 g/dL
gamma-GTP [8]: 1 IU/L

From ChEMBL document CHEMBL3885861, “Open TG-GATES”
